{
  "source": "PubChem BioAssay AID2305",
  "about": "(GlaxoSmithKline (GSK), 2010)",
  "note": "Several values for one entry are separate records, joined by “and”; a condition that tells them apart may be missing. Equal entries are not always repeated.",
  "data": [
    {"system": "P. falciparum 3D7 growth, pLDH absorbance", "experiment": "P. falciparum 3D7 growth inhibition, dose response, strain 3D7 (AID 2305)", "values": [
      {"smiles": "N#CN1CC[C@@H](NS(=O)(=O)Cc2ccc(Cl)c(Cl)c2)C1", "IC50": "530 nM"},
      {"smiles": "O=c1cc(NCCCNCc2cc(Br)cs2)[nH]c2ccccc12", "IC50": "1060 nM"},
      {"smiles": "CC(CN(C)C)C(=O)Nc1cccc(-c2ccc(-c3nc4ccc(F)cc4[nH]3)s2)c1", "note": "(centres undefined)", "IC50": "800 nM"},
      {"smiles": "Cc1nn(CC(C)C)c2sc(C(=O)N3CCN(S(=O)(=O)c4ccc(C#N)cc4)CC3)cc12", "IC50": "740 nM"},
      {"smiles": "O=C(/C=C/c1ccc(Cl)c(Cl)c1)N1CCC(CCN2CCc3[nH]c4ccccc4c3C2)CC1", "IC50": "890 nM"},
      {"smiles": "NC1CCN(c2nc(NCCCc3ccc(O)cc3)nc(NCc3cccc4ccccc34)n2)CC1", "IC50": "720 nM"},
      {"smiles": "CC(C)c1ccc(NC(=O)c2ccc(CN3CCCN(Cc4cccc(Cl)c4)CC3)cc2)cc1", "IC50": "1160 nM"},
      {"smiles": "CNC(=O)C(C)N(c1ccc(Cl)cc1)c1nc(C(C)(C)C)cs1", "note": "(centres undefined)", "IC50": "740 nM"},
      {"smiles": "O=S(=O)(Nc1cccc(CCN2CCC(N3CCCCC3)CC2)c1)c1ccccc1C(F)(F)F", "IC50": "1150 nM"},
      {"smiles": "COC(=O)c1cc(C(O)CNC(C)CCCc2ccccc2)ccc1O", "note": "(centres undefined)", "IC50": "740 nM"},
      {"smiles": "O=C(NCc1ccc(C(F)(F)F)cc1)c1cccc(-c2nnc(-c3cccc(-c4cncnc4)c3)o2)c1", "IC50": "540 nM"},
      {"smiles": "CC(C)CCNCc1ccc(OCc2ccccc2COc2ccc(CNCCC(C)C)cc2I)c(I)c1", "IC50": "430 nM"},
      {"smiles": "CC1CC1C(=O)NC1CCN(CC2(c3ccccc3)CCCCC2)CC1", "note": "(centres undefined)", "IC50": "640 nM"},
      {"smiles": "Cc1cc(N)c2cc(NC(=O)c3ccc4ccccc4c3)ccc2n1", "IC50": "250 nM"},
      {"smiles": "Cc1noc(NC(=O)c2sc3ccccc3c2O)c1C", "IC50": "850 nM"},
      {"smiles": "O=C(Nc1nc2cc(S(=O)(=O)NCCc3cccc(F)c3)ccc2n1CCCn1ccnc1)c1ccc(Cl)cc1", "IC50": "1270 nM"},
      {"smiles": "O=S(=O)(/C=C/c1ccccc1)N(Cc1ccc(-c2ccc(CNCCOc3ccccc3)cc2)cc1)CC1CCCCN1", "note": "(centres undefined)", "IC50": "740 nM"},
      {"smiles": "CS(=O)(=O)N1CC2(CCN(CCC(NC(=O)NCc3ccc(Cl)c(Cl)c3)c3ccc(Cl)c(Cl)c3)CC2)c2ccccc21", "note": "(centres undefined)", "IC50": "800 nM"},
      {"smiles": "N#Cc1ccc2c(c1)CN(CCC1CCC(NC(=O)/C=C/c3c[nH]c4ccccc34)CC1)CC2", "note": "(centres undefined)", "IC50": "990 nM and 900 nM"},
      {"smiles": "Cc1ccc(NC(=O)NC2CCN(CCC(NC(=O)Cc3ccccc3)c3ccc(Cl)c(Cl)c3)CC2)cc1", "note": "(centres undefined)", "IC50": "620 nM"},
      {"smiles": "CCCCN(CCCC)CCNC(=O)c1cc(OC(F)(F)F)ccc1O", "IC50": "920 nM"},
      {"smiles": "CCCc1cc(Cc2cnc(N)nc2N)cc2c1OC(C)C2C", "note": "(centres undefined)", "IC50": "670 nM"},
      {"smiles": "Cc1ccc(CNC(=O)[C@H](CCCN)Nc2cc(C)nc(Nc3ccccc3)n2)cc1", "IC50": "1290 nM"},
      {"smiles": "CCOC(=O)C1=C(C)N=c2sc(=Cc3cc(Cl)ccc3O)c(=O)n2C1c1ccc(OC)cc1", "note": "(centres undefined)", "IC50": "750 nM"},
      {"smiles": "Oc1ccc(Br)cc1-c1nc2ccc(Cl)cc2nc1-c1cc(Br)ccc1O", "IC50": "790 nM"},
      {"smiles": "Cc1ccc(S(=O)(=O)N(CCCNCc2cccc(O)c2)c2ccccc2)cc1", "IC50": "770 nM"},
      {"smiles": "CC(C)CNCc1cccc(-c2ccc(CNC3CCN(Cc4ccccc4)CC3)cc2)c1", "IC50": "270 nM"},
      {"smiles": "C=CC(=O)Nc1ccc(Cl)cc1C(O)c1ccccc1", "note": "(centres undefined)", "IC50": "180 nM"},
      {"smiles": "CCN(CC)CCN(Cc1ccc(-c2ccc(C(F)(F)F)cc2)cc1)C(=O)Cn1c(SCc2ccc(F)cc2)nc(=O)c2ccccc21", "IC50": "770 nM"},
      {"smiles": "Cc1cccc2[nH]c(-c3cccc(-c4ccc(NC(=O)C(C)(C)c5ccccn5)cc4)c3)nc12", "IC50": "690 nM"},
      {"smiles": "c1cc(CNCCc2ccncc2)cc(-c2ccc(-c3nc4ccccc4[nH]3)s2)c1", "IC50": "340 nM"},
      {"smiles": "COc1cccc(CN2CCN(C(c3ccccc3)c3ccccc3)CC2)c1O", "IC50": "780 nM"},
      {"smiles": "COc1ccc2c(NN=Cc3cccc([N+](=O)[O-])c3)cc(C)nc2c1", "IC50": "560 nM"},
      {"smiles": "CCCCCCCc1c(C)[nH]c2c(OC)cccc2c1=O", "IC50": "920 nM"},
      {"smiles": "COc1ccc2nccc([C@@H](O)CN3CCC(NCc4cc5sccc5nc4C(F)(F)F)CC3)c2c1", "IC50": "910 nM"},
      {"smiles": "CCNC(=O)c1ccc2c(c1)c(C)c(C)n2Cc1ccc(F)cc1", "IC50": "770 nM"},
      {"smiles": "O=C(Nc1cccc(-c2nn3ccccc3c2-c2ccnc(Nc3cccc(F)c3)n2)c1)c1c(F)ccc(F)c1F", "IC50": "860 nM"},
      {"smiles": "O=C(Nc1ccc(-c2ccc(-c3nc4ccc(C(F)(F)F)cc4[nH]3)cc2)cc1)Nc1ccc(F)c(F)c1F", "IC50": "220 nM"},
      {"smiles": "c1ccc2c(c1)ncc1c3ccccc3[nH]c21", "IC50": "870 nM"},
      {"smiles": "Cc1cccnc1CNc1nccc2c(C)c(C)[nH]c12", "IC50": "850 nM"},
      {"smiles": "Cc1cc(N[C@@H](CC(C)C)C(=O)NCCOc2ccccc2)nc(NCC2CCCCC2)n1", "IC50": "970 nM"},
      {"smiles": "Cc1c(CC(=O)NCCC2CCN(CCCCCNC(=O)/C=C/c3ccc(Cl)c(Cl)c3)CC2)sc2ccc(Cl)cc12", "IC50": "880 nM"},
      {"smiles": "CC(=O)Nc1ccc2[nH]cc(C3CCN(CC4CCC(NC(=O)/C=C/c5ccccc5Cl)CC4)CC3)c2n1", "note": "(centres undefined)", "IC50": "360 nM"},
      {"smiles": "CCOc1c(OC)ccc2c1CCN(CCN1CCC(CNC(=O)c3ccc(-c4ccc(C#N)cc4)cc3)CC1)C2", "IC50": "1080 nM"},
      {"smiles": "O=C(NCc1cccc(C(F)(F)F)c1)C1CCCN(C(=O)c2ccc(O)c(-c3ccc(Cl)c(Cl)c3)c2)C1", "note": "(centres undefined)", "IC50": "800 nM"},
      {"smiles": "CCC1(C)N=C(N)N=C(N)N1c1ccc(Cl)cc1", "note": "(centres undefined)", "IC50": "160 nM"},
      {"smiles": "COc1cccc(C(=O)Nc2sc3c(c2C(N)=O)CCCC3)c1OC", "IC50": "930 nM"},
      {"smiles": "O=C(NC1CCCCN(Cc2ccccc2O)C1)c1ccc(-c2ccccc2)cc1", "note": "(centres undefined)", "IC50": "760 nM"},
      {"smiles": "Clc1cccc(-c2nc(Nc3ccnc(-c4ccc(CN5CCOCC5)cc4)c3)c3ccccc3n2)c1", "IC50": "710 nM"}
    ]}
  ]
}
